Results from patent publication US12540173B2, “Methods of treating cancer by targeting ZSCAN4 activity in cancer stem cells” (University of Maryland, Baltimore, priority 2019, dated 2026).
Read-outs that look alike come from different tables or passages of the source.

How the values were obtained:
[1] = tested on: OCT3/4, SOX2, KLF4 and NANOG; assay: qPCR of pluripotent stem cell factors after ZSCAN4 knockdown; format: cell-based, human; settings: vs NTC-shRNA
Protocol: RNA extraction and Quantitative Reverse Transcriptase Polymerase Chain Reaction (qRT-PCR). One microgram of total RNA, isolated with Trizol, was reverse transcribed by Superscript III (Invitrogen) following the manufacturer's protocol. For qPCR, 10 ng cDNA was used per well in triplicate using SYBR green reaction mix (Roche) following the manufacturer's instructions with corresponding primers (Table 1). Reactions were run on the LightCycler 480 system (Roche). Fold induction was calculated by the delta-delta Ct method.
ZSCAN4 shRNAs were tested (19-mer sense, a hairpin loop, and 19-mer anti-sense oligos): shRNA1 (SEQ ID NO:3): 5′-[…] G-3′, shRNA2 (SEQ ID NO:4): 5′-[…] TG-3, shRNA3 (SEQ ID NO:5): 5′-[…] T-3 and two were cloned into the HuSH shRNA Plasmid pRFP-C-RS (Origene). Vectors were stably transfected into Tu167 or 012SCC cells by Effectene (QIAGEN) according to the manufacturer's protocol. As controls, isogenic cell lines were also generated expressing a non-targeting control shRNA (NTC-shRNA) or an Empty vector (same vector without an shRNA cassette). Cell lines were selected with 1 μg/ml Puromycin (ThermoFisher Scientific). Knockdown was confirmed by immunostaining and by qPCR.
Next, we used two of the shRNA sequences (shRNA1 and shRNA2) to generate stable knockdown cell lines (in Tu167 and 012SCC cells). Isogenic cells for each cell line with NTC-shRNA, or empty vector were used as controls. […] Our results further indicate a decrease in the CSC markers BMI1 and EZH2 (FIG. 5C).

[2] = tested on: ZSCAN4 depleted Tu167 cells; settings: increasing doses, ZSCAN4 depleted Tu167 cells compared to isogenic NTC shRNA cells, MTT
Source text: FIG. 14. […] All data shown as mean±S.E.M. observed in triplicate in at least three independent experiments. Asterisks indicate: *p<0.05, **p<0.01, ***p<0.001.
Another hallmark of CSCs is multi-drug resistance, a major factor contributing to cancer recurrence. Therefore, we examined the role of ZSCAN4 in response to genotoxic drugs. To define the effect of ZSCAN4 on drug resistance, we measured cell viability after increasing doses of the DNA damaging drugs in ZSCAN4 depleted and control Tu167 cells.

[3] = tested on: tet-ZSCAN4 cells; assay: Dox-regulated ZSCAN4 induction and clearance, immunoblot; format: cell-based, human
Protocol: FIG. 9. A, An illustration of the tet-ZSCAN4 expression vector. B, Image of tet-ZSCAN4 (Tu167) cells showing expression of GFP. C, Immunoblot analyses indicate ZSCAN4 is tightly regulated by Dox and localizes to the nucleus; Controls: LDH (cytosol), Lamin-B (nucleus). D, Doxycycline addition to the culture medium (Dox+) induces ZSCAN4 within 6 hours.
Immunoblot Assays. Cytosolic proteins were extracted by Cytoskeleton buffer (10 mM PIPES, 300 mM sucrose, 100 mM NaCl, 3 mM MgCl2, 1 mM EGTA and 0.5% Triton X100), and nucleoplasm fraction was isolated. Next, pellets were lysed in urea solution (8 M Urea in 0.01 Tris pH 8+0.1M NaH2PO4) and sonicated. Samples were electrophoresed in polyacrylamide gels. PVDF membranes were blocked with 5% nonfat milk or Superblock (Thermo Fisher Scientific) for 1 hour, then incubated overnight at 4° C. with the indicated primary antibodies in blocking solution (Table 2). Membranes were washed and incubated with secondary antibodies (1:5000) for 1 hour. Secondary antibodies were visualized by ECL Chemiluminescence (ThermoFisher Scientific). […]

shRNA1: ZSCAN4 shRNA, SEQ ID NO:3: 5′-GAGAACGGTCCTAGGCCTGTCAAGAGGAGAACGGTCCTAGGCCTG-3′
expression of OCT3/4, SOX2, KLF4 and NANOG ([1]; 012SCC stable knockdown cells): significant downregulation
expression of OCT3/4, SOX2, KLF4 and NANOG ([1]; 012SCC stable knockdown cells, listed as shRNA 1): decreased expression
expression of OCT3/4, SOX2, KLF4 and NANOG ([1]; Tu167 stable knockdown cells): significant downregulation
expression of OCT3/4, SOX2, KLF4 and NANOG ([1]; Tu167 stable knockdown cells, listed as shRNA 1): decreased expression

N.N.[Cl][Pt][Cl] [CPT, Cisplatin]
cell viability [2]: significantly decreased cell viability
cell viability ([2]; listed as Cisplatin): hypersensitivity

shRNA2: ZSCAN4 shRNA, SEQ ID NO:4: 5′-GATATCAGACCTACGGGTGTCAAGAGGATATCAGACCTACGGGTG-3′
expression of OCT3/4, SOX2, KLF4 and NANOG ([1]; 012SCC stable knockdown cells): significant downregulation
expression of OCT3/4, SOX2, KLF4 and NANOG ([1]; 012SCC stable knockdown cells, listed as shRNA 2): decreased expression
expression of OCT3/4, SOX2, KLF4 and NANOG ([1]; Tu167 stable knockdown cells): significant downregulation
expression of OCT3/4, SOX2, KLF4 and NANOG ([1]; Tu167 stable knockdown cells, listed as shRNA 2): decreased expression

Bleomycin [BLM]
cell viability [2]: dramatically reduced cell viability
cell viability ([2]; listed as Bleomycin): hypersensitivity

C[C@H]1c2cccc(O)c2C(=O)C2=C(O)[C@]3(O)C(=O)C(C(N)=O)=C(O)[C@@H](N(C)C)[C@@H]3[C@@H](O)[C@@H]21 [Dox, Doxycycline]
time until ZSCAN4 is detectable after addition of Dox to the medium [3]: ≤ 6 h
